Test results taken from paper PMC8327158, “PEGylated AdipoRon derivatives improve glucose and lipid metabolism under insulinopenic and high-fat diet conditions” (Journal of Lipid Research, 2021).

System: HFD-fed wild-type mice
Test: Sphingolipid levels in tissues and serum of HFD-fed mice by mass spectrometry
Assay type: in vivo, mouse
Conditions: average ± SD
Method: Six-week-old wild-type male mice were fed HFD for 4 weeks or 7 months In total, 5 mg/Kg of PBS, Adiporon, AdipoRonPEG5, AdipoRonPEG6HTL were injected twice a day for 5 days. After 5 days of treatment, systemic test is performed, and serum (Before and after treatment), subcutaneous, epididymal, liver, heart samples were harvested for qPCR and sphingolipid analysis.
Flash-frozen tissue samples (~40 mg) in a borosilicate glass tube were quenched with 2.0 ml of organic extraction solvent (isopropanol: ethyl acetate, 15:85; v:v) and homogenized with a mechanical tissue disruptor. Immediately afterward, 20 μl of organic internal standard solution was added (Ceramide/Sphingoid Internal Standard Mixture II diluted 1:10 in ethanol). The mixture was vortexed for 20 s and sonicated in ultrasonic bath for 40 min at 40°C. The organic extract was allowed to reach room temperature, and 1.5 ml of HPLC water was added and a two-phase liquid-liquid extraction was performed. The upper phase was transferred to a new clean tube, and the lower aqueous phase containing the protein pellet was re-extracted with additional 2.0 ml of organic extraction solvent. The organic phases were combined and dried under nitrogen stream at 40°C. Dried extracts were stored at –80°C until analysis. For analysis of ceramides and sphingoid base species, the dried residues were reconstituted in 200 μl of methanol. Sphingomyelins required a sample dilution of 1:50 in methanol prior to analysis. Serum sphingolipids were extracted using a similar methodology requiring 25 μl of serum.
Liver, subcutaneous adipose tissue, pancreas, pancreatic islets were initially homogenized in 500 μl of cold PBS using an ultrasonic probe disruptor and keeping the sample on ice during sonication. In total, 50 μl of aqueous homogenate was aliquoted for protein determination. In total, 400 μl of the lysate was immediately quenched in 2.0 ml of organic extraction solvent.
In total, 5 μl of reconstituted samples was injected into an LC/MS/MS system for the analysis of ceramides and sphingoid bases, and 1 μl injection was required for the analysis of sphingomyelins. The system consisted of a Shimadzu LCMS-8050 triple-quadrupole mass spectrometer with the dual ion source operating in electrospray positive ionization mode. The mass spectrometer is coupled to a Shimadzu Nexera X2 UHPLC system equipped with three solvent delivery modules LC-30AD, three degassing units DGU-20A5R, an autosampler SIL-30ACMP, and a column oven CTO-20AC operating at 40°C (Shimadzu Scientific Instruments, Columbia, MD). Six sphingoid bases (d18:1 sphingosine, d18:1 sphingosine-1-phosphate, d18:1 deoxysphingosine, d18:0 sphinganine, d18:0 sphinganine-1-phosphate, d18:0 deoxysphinganine) and […] ceramide species and their metabolites (C16:0, C16:0 dihydroceramide, C16:0 glucosylceramide, C16:0 lactosylceramide, C16:0 sphingomyelin, C18:0, C18:0 dihydroceramide, C18:0 glucosylceramide, C18:0 sphingomyelin, C18:1, C20:0, C22:0, C22:0 glucosylceramide, C24:0, C24:0 dihydroceramide, C24:0 lactosylceramide, C24:0 sphingomyelin, C24:1, C24:1 dihydroceramide, C24:1 glucosylceramide, C24:1 sphingomyelin). Quantitative analysis of sphingolipids was achieved using selective reaction monitoring scan mode. Lipid separation was achieved by reverse phase LC on a 2.1 (i.d.) × 150 mm Ascentis Express C8, 2.7 micron (Supelco, Bellefonte, PA) column under gradient elution, using three different mobile phases: eluent A consisting of methanol/water/formic acid, 600/400/0.8, v/v/v with 5 mM ammonium formate, eluent B consisting of methanol/formic acid, 1,000/0.8, v/v with 5 mM ammonium formate, and eluent C consisting of CH3OH/CH2Cl2 350/650. The concentration of each metabolite was determined according to calibration curves using the peak-area ratio of analyte versus corresponding internal standard. Calibration curves were generated using serial dilutions of each target analyte.

[1] = scWAT, 5 mg/kg twice a day 5 days
[2] = serum at day 0 (before treatment)
[3] = serum at day 5, 5 mg/kg twice a day 5 days

## O=C(COc1ccc(C(=O)c2ccccc2)cc1)NC1CCN(Cc2ccccc2)CC1 [AdipoRon]
[1]
  Hexosyl 20:0: 615610.3 ± 235007.39 pg/mg
  Hexosyl 22:0: 6375434.2 ± 2782528.88 pg/mg
  Hexosyl 24:0: 21878746.0 ± 11579620.12 pg/mg
  Hexosyl 24:1: 11496554.3 ± 5647659.03 pg/mg
  Lactosyl 16:0: 45792.6 ± 45798.33 pg/mg
  Lactosyl 18:0: 0.0 ± 0.0 pg/mg
  Lactosyl 22:0: 49816.7 ± 23898.61 pg/mg
  Lactosyl 24:1: 86367.6 ± 22529.94 pg/mg
  Lactosyl C24:0: 55460.5 ± 33843.98 pg/mg
  Sphingaine1P: 35443.6 ± 15686.23 pg/mg
  Sphinganine: 29337.6 ± 16700.68 pg/mg
  Sphingosine: 49182.2 ± 32181.22 pg/mg
  Sphingosine1P: 37612.5 ± 17941.43 pg/mg
  dCer 16:0: 14580.7 ± 4393.04 pg/mg
  dCer 18:0: 17597.9 ± 5214.49 pg/mg
  dCer 20:0: 80869.1 ± 48824.3 pg/mg
  dCer 22:0: 84488 ± 14825 pg/mg
  dCer 24:0: 96632.5 ± 27938.2 pg/mg
  dCer 24:1: 93338.7 ± 29289.58 pg/mg
[2]
  Cer 14:0: 8402.0 ± 1707.95 pg/mg
  Cer 16:0: 25341.1 ± 4464.54 pg/mg
  Cer 18:0: 10061.4 ± 1406.12 pg/mg
  Cer 18:1: 0 pg/mg
  Cer 20:0: 144673.7 ± 32033.84 pg/mg
  Cer 22:0: 2303972.0 ± 309633.22 pg/mg
  Cer 24:0: 1443539.8 ± 157739.65 pg/mg
  Cer 24:1: 986691.7 ± 101968.89 pg/mg
  Cer 26:0: 10057.2 ± 2818.25 pg/mg
  Cer 26:1: 0 pg/mg
  DeoxySphinganie: 0.0 ± 0.0 pg/mg
  Deoxysphingosine: 0.0 ± 0.0 pg/mg
  Hexosyl 14:0: 2960.2 ± 601.74 pg/mg
  Hexosyl 16:0: 3024488.2 ± 155463.13 pg/mg
  Hexosyl 18:0: 47892.4 ± 4333.97 pg/mg
  Hexosyl 20:0: 182974.2 ± 30498.44 pg/mg
  Hexosyl 22:0: 12192915.9 ± 1475247.57 pg/mg
  Hexosyl 24:0: 1341147.2 ± 57498.17 pg/mg
  Hexosyl 24:1: 3535698.6 ± 346272.3 pg/mg
  Lactosyl 16:0: 94073.6 ± 8945.71 pg/mg
  Lactosyl 18:0: 0.0 ± 0.0 pg/mg
  Lactosyl 22:0: 60785.8 ± 9718.01 pg/mg
  Lactosyl 24:1: 85880.2 ± 22412.15 pg/mg
  Lactosyl C24:0: 103502.4 ± 17366.51 pg/mg
  Sphingaine1P: 250934.3 ± 36218.42 pg/mg
  Sphinganine: 45226.5 ± 8665.07 pg/mg
  Sphingosine: 43193.4 ± 8183.0 pg/mg
  Sphingosine1P: 774207.2 ± 25661.64 pg/mg
  dCer 16:0: 16437.5 ± 2669.42 pg/mg
  dCer 18:0: 10213.1 ± 2375.68 pg/mg
  dCer 20:0: 3716.7 ± 0.0 pg/mg
  dCer 22:0: 335078.3 ± 58715.16 pg/mg
  dCer 24:0: 212159.3 ± 42613.52 pg/mg
  dCer 24:1: 111963.9 ± 12779.64 pg/mg
[3]
  Cer 14:0: 9165.8 ± 853.97 pg/mg
  Cer 16:0: 17212.8 ± 1488.18 pg/mg
  Cer 18:0: 8049.1 ± 1033.29 pg/mg
  Cer 18:1: 0 pg/mg
  Cer 20:0: 135037.6 ± 17909.21 pg/mg
  Cer 22:0: 1736100.3 ± 185474.31 pg/mg
  Cer 24:0: 1412623.3 ± 289722.52 pg/mg
  Cer 24:1: 771667.5 ± 65564.62 pg/mg
  Cer 26:0: 11959.9 ± 2614.25 pg/mg
  Cer 26:1: 0 pg/mg
  DeoxySphinganie: 0.0 ± 0.0 pg/mg
  Deoxysphingosine: 0.0 ± 0.0 pg/mg
  Hexosyl 14:0: 2960.2 ± 601.74 pg/mg
  Hexosyl 16:0: 3736352.2 ± 191696.45 pg/mg
  Hexosyl 18:0: 63748.7 ± 18002.6 pg/mg
  Hexosyl 20:0: 245486.5 ± 74132.09 pg/mg
  Hexosyl 22:0: 9390882.1 ± 688490.25 pg/mg
  Hexosyl 24:0: 1430423.2 ± 157556.06 pg/mg
  Hexosyl 24:1: 3036231.9 ± 367214.43 pg/mg
  Lactosyl 16:0: 94265.2 ± 16983.56 pg/mg
  Lactosyl 18:0: 0.0 ± 0.0 pg/mg
  Lactosyl 22:0: 58253.0 ± 5503.82 pg/mg
  Lactosyl 24:1: 124049.2 ± 19300.14 pg/mg
  Lactosyl C24:0: 122340.7 ± 11760.71 pg/mg
  Sphingaine1P: 423112.6 ± 48511.44 pg/mg
  Sphinganine: 11725.4 ± 1939.02 pg/mg
  Sphingosine: 18235.7 ± 1946.06 pg/mg
  Sphingosine1P: 1139765.2 ± 69403.83 pg/mg
  dCer 16:0: 7198.9 ± 1199.82 pg/mg
  dCer 18:0: 4034.8 ± 845.83 pg/mg
  dCer 20:0: 2973.3 ± 1017.85 pg/mg
  dCer 22:0: 174957.8 ± 18878.67 pg/mg
  dCer 24:0: 105210.1 ± 6589.37 pg/mg
  dCer 24:1: 49553.1 ± 7051.68 pg/mg
